Assay in all cases: KINOMEscan competition binding
Conditions in all cases: compound 10.0 µM

The target of experiment [1] is DCLK2 (human) (UniProt Q8N568).
The target of experiment [2] is DCLK1 (human) (UniProt O15075).
The target of experiment [3] is NUAK2 (human) (UniProt Q9H093).
In experiment [4] the target is GAK (human) (UniProt O14976).
Experiment [5] deals with RET (human), P07949 [V804L].
Experiment [6] deals with PIK3CA (human) (UniProt P42336).
The target in experiment [7] is PRKAA1 (human) (UniProt Q13131).
For experiment [8], the target named is PLK4 (human) (UniProt O00444).
The target of experiment [9] is AURKA (human) (UniProt O14965).
In experiment [10] the target is MAP3K3 (human) (UniProt Q99759).
The target in experiment [11] is AURKC (human) (UniProt Q9UQB9).
Experiment [12] concerns the target PRKD1 (human) (UniProt Q15139).
Experiment [13] relates to FLT3 (human), P36888 [K663Q].
Experiment [14] addresses TAOK3 (human) (UniProt Q9H2K8).
In experiment [15] the target is BMPR1B (human) (UniProt O00238).
The subject of experiment [16] is ABL1 (human), P00519 [T315I].
Experiment [17] has as its target ACVR1 (human) (UniProt Q04771).
In experiment [18] the target is ROS1 (human) (UniProt P08922).
For experiment [19], the system named is KIT (human), P10721 [V559D/V654A].
Experiment [20] concerns the target PIP5K1A (human) (UniProt Q99755).
Experiment [21] concerns the target PIK3CG (human) (UniProt P48736).
Experiment [22] deals with TNK1 (human) (UniProt Q13470).
The target of experiment [23] is CAMKK2 (human) (UniProt Q96RR4).
The target in experiment [24] is AURKB (human) (UniProt Q96GD4).
In experiment [25] the target is MKNK2 (human) (UniProt Q9HBH9).
The target of experiment [26] is TYK2 JH1 catalytic (human) (UniProt P29597).
The target of experiment [27] is TNK2 (human) (UniProt Q07912).
Experiment [28] deals with MAPK7 (human) (UniProt Q13164).
Experiment [29] concerns the target CSF1R (human) (UniProt P07333).
Experiment [30] addresses KIT (human) (UniProt P10721).
The target in experiment [31] is CLK2 (human) (UniProt P49760).
The target in experiment [32] is TAOK1 (human) (UniProt Q7L7X3).
In experiment [33] the target is PDGFRA (human) (UniProt P16234).
Experiment [34] has as its target STK16 (human) (UniProt O75716).
Experiment [35] deals with PIK3CD (human) (UniProt O00329).
For experiment [36], the target named is RPS6KA1 KD2 (human) (UniProt Q15418).
The target in experiment [37] is NUAK1 (human) (UniProt O60285).
For experiment [38], the target named is PLK1 (human) (UniProt P53350).
Experiment [39] relates to FLT3 (human), P36888 [ITD].
Experiment [40] has as its target PRKD3 (human) (UniProt O94806).
The target in experiment [41] is FLT3 (human) (UniProt P36888).
Experiment [42] concerns the target RPS6KA6 KD2 (human) (UniProt Q9UK32).
Experiment [43] relates to KIT (human), P10721 [V559D].
The target of experiment [44] is FGFR4 (human) (UniProt P22455).
The target of experiment [45] is PDGFRB (human) (UniProt P09619).
Experiment [46] has as its target MERTK (human) (UniProt Q12866).
For experiment [47], the target named is SRPK1 (human) (UniProt Q96SB4).
Experiment [48] concerns RET (human), P07949 [M918T].
Experiment [49] concerns the target FLT4 (human) (UniProt P35916).
For experiment [50], the target named is STK33 (human) (UniProt Q9BYT3).
For experiment [51], the target named is BRSK2 (human) (UniProt Q8IWQ3).
The target in experiment [52] is MARK4 (human) (UniProt Q96L34).
Experiment [53] has as its target PRKCD (human) (UniProt Q05655).
For experiment [54], the target named is NLK (human) (UniProt Q9UBE8).
For experiment [55], the target named is MYLK (human) (UniProt Q15746).
Experiment [56] addresses PLK3 (human) (UniProt Q9H4B4).
Experiment [57] deals with TTK (human) (UniProt P33981).
The target of experiment [58] is PKN1 (human) (UniProt Q16512).
For experiment [59], the target named is PRKCQ (human) (UniProt Q04759).

Here are results for 3 compounds from the kinase profiling compilation of Christmann-Franck et al. (2016).

Chain of PLK1 (human) (P53350 whole entry, looked up): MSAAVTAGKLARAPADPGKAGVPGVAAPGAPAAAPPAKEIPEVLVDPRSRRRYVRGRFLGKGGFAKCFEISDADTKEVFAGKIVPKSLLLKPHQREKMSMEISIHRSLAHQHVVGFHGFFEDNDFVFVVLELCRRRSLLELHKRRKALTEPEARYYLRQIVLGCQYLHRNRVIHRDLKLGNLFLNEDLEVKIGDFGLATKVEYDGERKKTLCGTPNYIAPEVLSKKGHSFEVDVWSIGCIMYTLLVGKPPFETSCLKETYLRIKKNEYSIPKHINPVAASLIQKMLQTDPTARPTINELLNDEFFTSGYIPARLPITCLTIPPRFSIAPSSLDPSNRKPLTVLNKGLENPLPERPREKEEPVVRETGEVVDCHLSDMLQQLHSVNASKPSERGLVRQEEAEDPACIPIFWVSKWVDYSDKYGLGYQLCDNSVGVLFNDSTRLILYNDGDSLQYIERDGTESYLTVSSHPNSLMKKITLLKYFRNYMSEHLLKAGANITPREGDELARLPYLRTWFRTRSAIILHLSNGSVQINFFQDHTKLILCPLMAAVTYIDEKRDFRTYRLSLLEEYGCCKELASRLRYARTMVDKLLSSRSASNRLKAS
Chain of MAPK7 (human) (Q13164 whole entry, looked up): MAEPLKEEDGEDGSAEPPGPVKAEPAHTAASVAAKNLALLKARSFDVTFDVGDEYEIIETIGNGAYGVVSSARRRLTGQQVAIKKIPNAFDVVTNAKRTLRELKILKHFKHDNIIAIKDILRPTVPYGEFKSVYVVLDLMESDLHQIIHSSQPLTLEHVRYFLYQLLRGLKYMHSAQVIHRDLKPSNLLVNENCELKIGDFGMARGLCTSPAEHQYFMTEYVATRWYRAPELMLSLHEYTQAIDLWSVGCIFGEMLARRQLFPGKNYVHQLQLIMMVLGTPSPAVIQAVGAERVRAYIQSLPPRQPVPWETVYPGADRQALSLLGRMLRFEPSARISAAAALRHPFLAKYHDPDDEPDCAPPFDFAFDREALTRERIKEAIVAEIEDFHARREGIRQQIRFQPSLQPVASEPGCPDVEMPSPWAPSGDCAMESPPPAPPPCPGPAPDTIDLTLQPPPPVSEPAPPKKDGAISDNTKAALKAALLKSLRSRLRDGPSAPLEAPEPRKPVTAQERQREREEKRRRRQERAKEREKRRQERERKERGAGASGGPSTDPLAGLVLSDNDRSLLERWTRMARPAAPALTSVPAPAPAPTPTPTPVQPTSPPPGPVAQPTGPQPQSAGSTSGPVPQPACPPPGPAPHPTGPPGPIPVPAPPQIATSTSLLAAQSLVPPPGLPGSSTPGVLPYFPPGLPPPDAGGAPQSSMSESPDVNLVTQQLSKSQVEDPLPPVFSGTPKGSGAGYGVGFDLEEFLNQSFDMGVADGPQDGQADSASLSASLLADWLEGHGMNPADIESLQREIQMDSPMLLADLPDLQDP
Chain of GAK (human) (O14976 whole entry, looked up): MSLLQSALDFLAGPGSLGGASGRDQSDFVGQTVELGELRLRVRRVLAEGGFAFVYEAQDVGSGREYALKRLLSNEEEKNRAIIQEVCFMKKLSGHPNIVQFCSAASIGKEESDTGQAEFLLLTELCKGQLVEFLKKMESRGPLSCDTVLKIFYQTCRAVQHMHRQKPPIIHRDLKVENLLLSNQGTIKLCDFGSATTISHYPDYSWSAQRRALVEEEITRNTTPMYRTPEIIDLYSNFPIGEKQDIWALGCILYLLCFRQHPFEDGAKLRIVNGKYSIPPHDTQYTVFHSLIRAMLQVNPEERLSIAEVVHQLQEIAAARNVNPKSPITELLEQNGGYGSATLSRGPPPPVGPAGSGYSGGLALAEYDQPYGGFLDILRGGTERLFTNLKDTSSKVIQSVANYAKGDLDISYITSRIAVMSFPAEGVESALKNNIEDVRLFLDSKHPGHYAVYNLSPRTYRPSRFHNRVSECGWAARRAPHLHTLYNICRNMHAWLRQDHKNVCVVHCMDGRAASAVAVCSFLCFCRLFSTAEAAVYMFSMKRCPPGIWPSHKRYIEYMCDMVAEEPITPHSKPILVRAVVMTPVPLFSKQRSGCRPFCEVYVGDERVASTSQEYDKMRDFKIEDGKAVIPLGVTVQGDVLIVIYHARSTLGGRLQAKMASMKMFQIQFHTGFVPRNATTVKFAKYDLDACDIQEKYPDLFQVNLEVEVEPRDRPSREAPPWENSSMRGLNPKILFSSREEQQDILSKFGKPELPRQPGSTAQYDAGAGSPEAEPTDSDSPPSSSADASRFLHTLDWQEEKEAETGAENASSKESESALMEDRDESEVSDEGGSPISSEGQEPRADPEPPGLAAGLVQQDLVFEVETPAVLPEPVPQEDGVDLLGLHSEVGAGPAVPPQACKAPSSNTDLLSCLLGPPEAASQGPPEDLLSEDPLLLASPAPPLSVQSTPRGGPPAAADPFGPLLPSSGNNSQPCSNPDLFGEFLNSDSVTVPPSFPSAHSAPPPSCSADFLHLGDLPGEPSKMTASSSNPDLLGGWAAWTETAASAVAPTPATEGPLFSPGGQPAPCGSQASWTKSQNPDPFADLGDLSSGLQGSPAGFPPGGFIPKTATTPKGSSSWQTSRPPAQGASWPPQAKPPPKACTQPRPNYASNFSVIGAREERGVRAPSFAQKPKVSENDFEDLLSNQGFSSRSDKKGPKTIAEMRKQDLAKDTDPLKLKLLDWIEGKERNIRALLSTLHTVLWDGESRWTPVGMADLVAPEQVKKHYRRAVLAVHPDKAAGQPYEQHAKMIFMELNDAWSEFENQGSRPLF
Chain of DCLK2 (human) (Q8N568 whole entry, looked up): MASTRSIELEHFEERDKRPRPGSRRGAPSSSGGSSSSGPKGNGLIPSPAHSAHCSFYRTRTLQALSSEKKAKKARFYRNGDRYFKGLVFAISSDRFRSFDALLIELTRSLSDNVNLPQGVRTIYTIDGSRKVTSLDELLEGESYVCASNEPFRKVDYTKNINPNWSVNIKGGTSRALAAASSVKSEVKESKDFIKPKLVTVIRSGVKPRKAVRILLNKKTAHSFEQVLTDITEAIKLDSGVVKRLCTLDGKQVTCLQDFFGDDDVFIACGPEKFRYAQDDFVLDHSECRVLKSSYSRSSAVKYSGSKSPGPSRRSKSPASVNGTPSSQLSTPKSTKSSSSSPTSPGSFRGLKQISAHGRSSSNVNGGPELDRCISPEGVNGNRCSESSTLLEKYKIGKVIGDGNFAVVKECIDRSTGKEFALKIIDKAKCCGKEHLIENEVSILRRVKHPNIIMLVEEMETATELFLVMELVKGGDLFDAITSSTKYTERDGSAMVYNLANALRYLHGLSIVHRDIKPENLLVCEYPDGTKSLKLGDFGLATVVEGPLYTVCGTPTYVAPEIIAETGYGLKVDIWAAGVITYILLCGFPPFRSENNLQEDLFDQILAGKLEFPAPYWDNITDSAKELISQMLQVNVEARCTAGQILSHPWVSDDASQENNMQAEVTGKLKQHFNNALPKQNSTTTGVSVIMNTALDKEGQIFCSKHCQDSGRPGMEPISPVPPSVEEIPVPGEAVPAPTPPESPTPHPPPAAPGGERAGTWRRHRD
Chain of PIP5K1A (human) (Q99755 whole entry, looked up): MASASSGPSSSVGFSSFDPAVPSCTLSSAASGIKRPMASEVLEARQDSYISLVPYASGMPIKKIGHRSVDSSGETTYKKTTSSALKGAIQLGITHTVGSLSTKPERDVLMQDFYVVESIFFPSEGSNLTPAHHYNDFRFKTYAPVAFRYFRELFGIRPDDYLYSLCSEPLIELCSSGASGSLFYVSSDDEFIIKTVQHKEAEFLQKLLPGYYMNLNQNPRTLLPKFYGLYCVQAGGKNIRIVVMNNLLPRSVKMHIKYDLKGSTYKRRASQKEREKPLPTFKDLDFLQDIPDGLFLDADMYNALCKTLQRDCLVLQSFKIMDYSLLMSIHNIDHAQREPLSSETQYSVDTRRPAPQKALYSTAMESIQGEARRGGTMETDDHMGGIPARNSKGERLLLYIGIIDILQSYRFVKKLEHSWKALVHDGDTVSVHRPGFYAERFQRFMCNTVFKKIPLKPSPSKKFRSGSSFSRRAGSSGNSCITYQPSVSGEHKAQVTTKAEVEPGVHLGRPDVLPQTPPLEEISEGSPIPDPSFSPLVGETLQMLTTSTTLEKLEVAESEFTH
Chain of DCLK1 (human) (O15075 whole entry, looked up): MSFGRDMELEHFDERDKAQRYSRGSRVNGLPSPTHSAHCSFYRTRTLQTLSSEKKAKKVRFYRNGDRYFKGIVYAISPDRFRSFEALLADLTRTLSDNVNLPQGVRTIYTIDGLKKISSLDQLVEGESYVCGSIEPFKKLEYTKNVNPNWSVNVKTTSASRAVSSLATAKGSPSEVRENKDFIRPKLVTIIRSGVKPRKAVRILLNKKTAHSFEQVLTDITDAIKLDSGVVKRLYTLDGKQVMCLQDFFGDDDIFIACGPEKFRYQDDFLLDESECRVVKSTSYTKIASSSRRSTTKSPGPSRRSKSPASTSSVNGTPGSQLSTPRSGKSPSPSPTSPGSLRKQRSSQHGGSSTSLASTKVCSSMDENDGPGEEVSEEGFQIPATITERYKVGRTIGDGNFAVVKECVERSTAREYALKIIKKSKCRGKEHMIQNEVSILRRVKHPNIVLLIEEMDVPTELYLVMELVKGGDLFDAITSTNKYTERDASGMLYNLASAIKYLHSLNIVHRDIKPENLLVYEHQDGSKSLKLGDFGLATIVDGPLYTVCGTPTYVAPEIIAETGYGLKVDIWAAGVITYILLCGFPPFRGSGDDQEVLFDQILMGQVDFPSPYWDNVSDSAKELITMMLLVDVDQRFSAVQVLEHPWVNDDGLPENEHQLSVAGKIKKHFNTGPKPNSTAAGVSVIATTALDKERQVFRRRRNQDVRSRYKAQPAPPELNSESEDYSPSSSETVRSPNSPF

On to `CN1C(=O)c2ccccc2N(C)c2nc(Nc3ccc(N4CCC(O)CC4)cn3)ncc21`, for which the kinase still bound, per cent of control in experiment [1] turned out to be 0.5%; in experiment [2] it was 0.3%; in [3], 22%; in experiment [4], 33%; in experiment [5], 34%; in experiment [6], 33%. In addition, the kinase still bound, per cent of control in experiment [7] worked out at 23%; in [8], 7.2%; in experiment [9], 8.2%; in experiment [10], 2.2%; in experiment [11] it was 3.7%; in experiment [12], 21%. The kinase still bound, per cent of control in experiment [13] came to 12%; in experiment [14] it was 0.4%; in experiment [15], 19%; in [16], 19%; in [17] it was 29%; in experiment [18], 28%. Moreover, the kinase still bound, per cent of control in experiment [19] is 26%; in experiment [20], 26%; in experiment [21], 2.2%; in experiment [22], 0.6%; in experiment [23], 31%; in experiment [24] it was 25%. The kinase still bound, per cent of control in experiment [25] was 1.6%; in [26], 18%; in experiment [27], 31%; in experiment [28], 0%; in experiment [29], 14%; in [30], 3.1%. Also, the kinase still bound, per cent of control turned out to be 32% in experiment [31]; 1% in [32]; 8% in experiment [33]; 31% in [34]; 33% in experiment [35]; 34% in experiment [36]. Moreover, the kinase still bound, per cent of control in [37] was 30%; in experiment [38], 24%; in experiment [39] it was 33%; in [40], 20%; in experiment [41], 8.1%; in [42], 30%. Further, the kinase still bound, per cent of control came out at 1.8% in [43], 25% in [44] and 2.6% in [45].

Take `COc1cc(C(=O)NC2CCN(C)CC2)ccc1Nc1ncc2c(n1)N(C1CCCC1)CCC(=O)N2C(C)C`: the kinase still bound, per cent of control in experiment [5] stood at 0%; in experiment [46], 34%; in [47], 0%; in [48] it was 0%; in experiment [49], 0%; in experiment [50], 32%. Besides, the kinase still bound, per cent of control in experiment [51] came to 0%; in experiment [20], 6.4%; in experiment [52], 0%; in experiment [38], 17%; in [53], 0%.

For the compound `COc1cc(C(N)=O)ccc1Nc1ncc2c(n1)N(C1CCCC1)[C@@H]1CCC[C@@H]1C(=O)N2C`, the kinase still bound, per cent of control in experiment [1] came to 24%; in experiment [2], 29%; in experiment [4], 33%; in [54] it was 25%; in [55] it was 25%; in experiment [56], 1.7%. The kinase still bound, per cent of control is 13% in [57]; 27% in [58]; 0.15% in experiment [28]; 31% in experiment [59]; 16% in experiment [38].
